Literature values, collected in patent US20060120971A1, “Agents and methods for administration to the central nervous system” (SIGNUM PHARMACEUTICALS, INC., priority 2004, published 2006).

Target: T1, carnitine palmitoyltransferase-1 (CPT1) (Rattus norvegicus, UniProt P32198)
T1 construct: decrease levels of CPT1 activity and increase the levels of LC-CoAs in the hypothalamus of healthy rats; host or cells: endogenous enzyme in brain/hypothalamus of conscious Sprague-Dawley rats (in vivo, ICV infusion)
T1 sequence (P32198 1-773): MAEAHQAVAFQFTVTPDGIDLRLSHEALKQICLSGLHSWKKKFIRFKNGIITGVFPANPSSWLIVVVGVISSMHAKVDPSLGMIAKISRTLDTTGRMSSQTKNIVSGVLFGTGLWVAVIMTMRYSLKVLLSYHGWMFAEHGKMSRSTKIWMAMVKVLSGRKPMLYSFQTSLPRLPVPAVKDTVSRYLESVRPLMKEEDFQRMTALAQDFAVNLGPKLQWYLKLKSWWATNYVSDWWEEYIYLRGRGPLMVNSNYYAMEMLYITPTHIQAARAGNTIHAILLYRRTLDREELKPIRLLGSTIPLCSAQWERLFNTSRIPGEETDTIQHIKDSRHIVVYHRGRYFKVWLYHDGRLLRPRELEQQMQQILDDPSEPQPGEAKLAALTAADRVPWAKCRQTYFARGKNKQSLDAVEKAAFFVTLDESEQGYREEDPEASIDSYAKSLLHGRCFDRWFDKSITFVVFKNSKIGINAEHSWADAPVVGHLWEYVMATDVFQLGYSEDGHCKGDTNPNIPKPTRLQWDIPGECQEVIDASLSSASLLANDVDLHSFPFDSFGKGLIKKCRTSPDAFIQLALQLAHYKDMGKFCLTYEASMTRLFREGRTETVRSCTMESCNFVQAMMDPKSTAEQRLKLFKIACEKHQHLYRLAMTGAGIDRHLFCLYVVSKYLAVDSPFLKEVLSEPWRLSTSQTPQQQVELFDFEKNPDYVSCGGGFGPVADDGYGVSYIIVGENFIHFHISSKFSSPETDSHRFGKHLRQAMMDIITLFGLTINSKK

[1] = healthy conscious Sprague-Dawley rats, continuous ICV infusion into third cerebral ventricle

Structure (SMILES): CCCCCCCCCCCCCCNC(=O)N[C@H](CC(=O)[O-])C[N+](C)(C)C [ST1326, R-4-trimethylammonium-3-(tetradecylcarbamoyl)-aminobutyrate]
- CPT1 activity (brain of healthy rats, ICV infusion): effectively decreasing
- endogenous glucose production [1]: reduced
- food intake [1]: diminished
- hypothalamic concentrations of LC-CoA (hypothalamus of healthy rats, ICV infusion): substantially increasing
